Tests used:
MCF-7 cells = assay: cell viability MTT assay, MCF-7; assay type: cell-based; conditions: Homo sapiens, MCF7, MCF-7, 48 h, read-out: IC50, cell growth inhibition
Experimental: To determine whether HS-133 can function as a novel anticancer compound, we tested the ability of this compound to inhibit the growth of breast cancer cell lines (SkBr3, T47D, and MCF-7) using an MTT assay. The cells were exposed to various concentrations (0.5–50 μM) of HS-133 for 48 h. As shown in Fig. 3A-C, HS-133 inhibited the growth of all three breast cancer cell lines in a dose-dependent manner.
Cell viability was performed by an MTT assay. Briefly, the SkBr3, T47D, and MCF-7 cells were plated at a density of 1-5 × 10^3 cells/well in a 96-well plate for 48 h. The medium was removed, and the cells were treated with either DMSO as control or various concentrations of HS-133. The final concentration of DMSO in the medium was ≤ 0.1% (v/v). After the cells were incubated for 48 h, 20 μl of MTT solutions (2 mg/ml) was added to each well for another 4 h at 37°C. The formazan crystals that formed were dissolved in DMSO (200 μl/well) via constant shaking for 5 min. The plate was then read on a microplate reader at 540 nm. Three replicate wells were used for each analysis. The median inhibitory concentration (IC50, defined as the drug concentration at which cell growth was inhibited by 50%) was assessed from the dose-response curves.

[1] = test system: HIF-1α and VEGF in SkBr3 cells; assay: hypoxia-induced HIF-1α and VEGF, Western blotting and ELISA; assay type: cell-based, human
Experimental: Since HIF-1α is the major regulator of cellular adaptive responses to hypoxia, we examined the effect of HS-133 on the expression of the HIF-1α in SkBr3 cells. The cells were treated with various concentrations of HS-133 (1–50 μM) under hypoxic mimicking conditions induced by a treatment with 100 μM CoCl2 for 16 h. […] To further determine the effect of HS-133 on hypoxia-induced VEGF, an immediate downstream target gene of HIF-1α, the protein and production of VEGF were measured by western blotting and ELISA in the SkBr3 cells.
The cells were washed three times with ice-cold PBS before lysis, and were lysed with a buffer containing 1% Triton X-100, 1% Nonidet P-40 (NP-40), as well as protease and phosphatase inhibitor cocktails (GenDEPOT, Barker, TX). Equal amounts of protein were separated by 10% sodium dodecyl sulfate-polyacrylamide gel electrophoresis (SDS-PAGE) and transferred onto the polyvinylidene fluoride (PVDF) membranes (Millipore, Bedford, MA). Immunostaining was performed by incubating the blots with primary antibodies, followed by horseradish peroxidase (HRP)-conjugated secondary antibody and detected with an enhanced chemiluminescence (ECL) plus system (Amersham Biosciences, Piscataway, NJ). […]
The amount of VEGF secreted into the media was measured by sandwich ELISA. […] The absorbance at 450 nm was measured with a 96-well plate reader.

SkBr3 xenograft = assay: SkBr3 tumor xenograft study; assay type: in vivo, BALB/c nude mice
Experimental: We examined the effects of HS-133 using athymic BALB/c nude mice implanted with the SkBr3 cells. HS-133 was injected intratumorally 2 times per week with a dose of 5 mg/kg when tumors reached an average volume of 50–100 mm^3. […] The average tumor volume of HS-133 treated mice was reduced by about 50% compared to that of control mice (Fig. 8D). To assess the general toxicity, we also measured the body weight change in tumor-bearing mice.
To establish SkBr3 tumor xenograft in mice, the SkBr3 cell line was grown in a culture, detached by trypsinization, washed and resuspended in PBS. Six-week old athymic BALB/c nude mice (Central Lab. Animal Inc. Seoul, Korea) were injected with 5 × 10^6 cells in the right flank of each mouse to initiate tumor growth. After reaching a tumor volume of 50–100 mm^3, mice were randomly divided into two groups, each having six mice. Mice in the control group were fed with a 0.2 mL vehicle (DMSO:PEG400:saline = 5:50:45) by oral gavage daily and the second group with 10 mg/kg dose of HS-133 in 0.2 mL daily for 21 days. For intratumoral administration, HS-133 was injected intratumorally with 2 times per week with a dose of 5 mg/kg when tumors reached an average volume of 50–100 mm^3. The body weight and tumor size were recorded twice per week. The tumor size was calculated by 0.5 × long axis × (short axis) ^2. Animal care and experimental procedures were conducted in accordance with the Guide for Animal Experiments by the Korean Academy of Medical Sciences, and the protocols used to this study were approved by the Institutional Animal Care and Use Committee in Inha University Hospital (Approval No. 110802-105).

For `CC(=O)Nc1ccc(-c2nc3c(c(=O)n(C)c(=O)n3C)n2-c2cccc(F)c2)cc1` [HS-133, N-(4-(7-(3-Fluorophenyl)-1,3-dimethyl-2,6-dioxo-2,3,6,7-tetrahydro-1H-purin-8-yl)phenyl) acetamide], the IC50 (MCF-7 cells) was 9.15 µM, the “hypoxia-induced HIF-1α expression” value ([1]; SkBr3, 1–50 μM, 100 μM CoCl2, 16 h) was “inhibited the hypoxia-induced HIF-1α expression” and the “hypoxia-induced VEGF expression and production” value ([1]; SkBr3, CoCl2, Western blotting and ELISA) was “suppress the VEGF expression and production in a dose-dependent manner”. The “tumor volume and weight” value (SkBr3 xenograft; intratumoral 5 mg/kg, 2 times per week, 19 days) was “remarkably reduced”, the “reduction of average tumor volume compared to control mice” value (SkBr3 xenograft; oral 10 mg/kg daily for 21 days) was “about 50%” and the “body weight change in tumor-bearing mice” value (SkBr3 xenograft; same dose, SkBr3 xenograft mice) was “no significant change”.
